How the values were obtained:
U2OS = assay: Cellular toxicity of mRNA-LNP, CellTiterGlo 2.0 viability; assay type: cell-based, human; conditions: total lipid 100 μM (context of the sentence)
Method: A human cell line derived from embryonic kidney cells (HEK293), the same line expressing SV40 large T antigen (HEK293T), human osteosarcoma-derived cell line (U2OS), and human hepatocyte carcinoma cell line (HepG2) were cultured in 96-well plates (5×10^4 cells in 100 μl of culture medium per well) in Dulbecco's modified medium (DMEM) or in IMDM medium (Iscove's Modified Dulbecco's medium) supplemented with 10% foetal bovine serum (FBS) at 37° C. in 5% CO2. Cells were transfected with 2 μl of mRNA-LNPs generated in triplicates in Example 25 (the final total concentration of all lipid components in the well was 20 μM) or 10 μl of mRNA-LNPs (the final total concentration of all lipid components in the well was 100 μM) and subsequently incubated for 24 hours. The cytotoxicity of LNPs was analysed in a CellTiterGlo 2.0 cell viability assay (Promega, USA). Cell viability was normalized to non-transfected cells (control).

STING protein = STING protein (Homo sapiens, UniProt Q86WV6, H232R); assay: STING activation reporter assay (ISRE luciferase, HEK293T) with cGAMP-LNPs; conditions: read-out: EC50 STING activation; 2′,3′-cGAMP transfected with cGAMP-LNPs
STING protein, sequence (Q86WV6 whole entry H232R): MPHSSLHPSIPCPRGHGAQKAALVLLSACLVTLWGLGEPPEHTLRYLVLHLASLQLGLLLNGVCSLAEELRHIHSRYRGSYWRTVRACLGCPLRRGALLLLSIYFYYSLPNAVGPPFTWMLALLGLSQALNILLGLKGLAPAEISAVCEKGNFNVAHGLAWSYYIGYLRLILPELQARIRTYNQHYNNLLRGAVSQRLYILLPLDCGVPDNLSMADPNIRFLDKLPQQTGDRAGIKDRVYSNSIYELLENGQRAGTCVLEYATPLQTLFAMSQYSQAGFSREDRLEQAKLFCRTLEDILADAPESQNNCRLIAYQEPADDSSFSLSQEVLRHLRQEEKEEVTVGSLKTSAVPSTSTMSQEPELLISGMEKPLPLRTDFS
Method: Cells were transferred to poly-D-lysine (Sigma-Aldrich)-coated 96-well plates (Greiner Bio-One) at a density of 2.5×10^4 in DMEM medium containing glucose (containing L-glutamine; Biowest) supplemented with 10% FBS (Capricorn Scientific) and 1% penicillin-streptomycin (Biowest). After incubation at 37° C. in 5% CO2 overnight, serially diluted compounds were added to the cells for 7 hours. In parallel, HEK293T cells were incubated with the test compounds alone for 30 minutes, washed twice with fresh medium, and then cultured for an additional 6.5 hours. Finally, 50 μl of cell culture medium was mixed with 30 μl of Bright-Glo Luciferase Assay System reagent (Promega) in white 96-well plates and luminescence was read in a Spark® spectrophotometer (TECAN, Grodig).

For `CCCCCCCCCCCCN(CCCCCCCCCCCC)CCCCCNC(=O)C12CC3CC(C(=O)NCCCCCN(CCCCCCCCCCCC)CCCCCCCCCCCC)(C1)CC(C(=O)NCCCCCN(CCCCCCCCCCCC)CCCCCCCCCCCC)(C3)C2` [4d], the “toxicity of particles formed by the lipidoid (in words)” value (U2OS) was “non-toxic” and the EC50 (STING protein) was 2 ± 0.36 nM.

From patent US12559450B2, “Lipidoids for nucleic acid transfection and use thereof” (Ustav Organicke Chemie a Biochemie AV CR, v.v.i., priority 2020, dated 2026)
